Target: T1, matrix metalloproteinase-9 (MMP-9, gelatinase B) (Homo sapiens, UniProt P14780)
T1 construct: gene MMP9
Test: fluorogenic DQ-gelatin degradation assay with active MMP-9; also gelatin zymography with compound in the incubation buffer
Type: biochemical

T1 sequence (P14780 107-707): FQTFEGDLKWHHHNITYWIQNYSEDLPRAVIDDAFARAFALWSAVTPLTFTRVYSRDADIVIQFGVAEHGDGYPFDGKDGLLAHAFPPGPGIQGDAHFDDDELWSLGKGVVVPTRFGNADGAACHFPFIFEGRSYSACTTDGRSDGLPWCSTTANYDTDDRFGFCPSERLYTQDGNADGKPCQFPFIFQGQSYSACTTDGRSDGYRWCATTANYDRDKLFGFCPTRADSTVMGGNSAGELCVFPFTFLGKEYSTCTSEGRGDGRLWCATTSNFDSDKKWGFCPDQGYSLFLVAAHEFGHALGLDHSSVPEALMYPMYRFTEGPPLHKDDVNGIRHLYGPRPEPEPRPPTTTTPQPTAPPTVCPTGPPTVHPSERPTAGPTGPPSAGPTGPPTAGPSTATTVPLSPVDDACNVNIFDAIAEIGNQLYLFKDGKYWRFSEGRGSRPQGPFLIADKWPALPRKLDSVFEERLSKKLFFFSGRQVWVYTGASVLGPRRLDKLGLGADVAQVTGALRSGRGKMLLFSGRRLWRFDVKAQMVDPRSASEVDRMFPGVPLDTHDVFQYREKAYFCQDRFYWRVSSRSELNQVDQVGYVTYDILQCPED

- IC50: 272 µM
SMILES: CN(C)c1ccc(O)c2c1C[C@H]1C[C@H]3[C@H](N(C)C)C(O)=C(C(N)=O)C(=O)[C@@]3(O)C(O)=C1C2=O [minocycline]

From publication PMC5378356, “Differential inhibition of activity, activation and gene expression of MMP-9 in THP-1 cells by azithromycin and minocycline versus bortezomib: A comparative study” (PLoS ONE, 2017)
